Consider 26 compounds from patent US20220381657A1, “METHOD FOR PREPARING BIOLOGICAL MATERIAL HAVING EXCELLENT LIGHT-TRANSMITTING PROPERTY” (RIKEN, priority 2016, published 2022).

A short description of series [1]: Refractive index of high-concentration aqueous solution. It is filed as physicochemical. An excerpt: The refractive index of an aqueous solution is commonly known to increase in a solute concentration-dependent manner, and the refractive index of a reagent per unit weight of the reagent varies among individual reagents. Accordingly, two properties are required in order to prepare a high refractive index aqueous solution: (1) an extremely high water-solubility and (2) a […] which allows achieving a high refractive index in a low-concentration aqueous solution.

The conditions of series [2]: for 400 nm: OD at 400 nm of the chemical.
A further series addresses EGFP (Aequorea victoria, UniProt P42212, F64L/H231L/S65T). The format is biochemical. The following applies: for 2nd quenching assay EGFP fluorescence: Table 3; for retention of fluorescence of a fluorescent protein: stated in the description. The protocol: (FIG. 7). […] A mouse hemisphere was treated with use of each 10 wt % chemical solution at 37° C. for 3 days, and was washed with PBS. Subsequently, the mouse hemisphere was subjected to refractive index adjustment with CUBIC-2A.

A further series deals with bovine coagulated blood. As to the kind of experiment: Decoloring screening: heme eluted from bovine coagulated blood (OD420-OD700). The note with it: decolorization; for 700 nm calibrated 420 nm Average: OD420 calibrated by OD700; for integrated value 500-700 nm Average: integrated absorbance 500-700 nm.
The subject of series [3] is fixed brain tissue suspension. The series is described as follows: 1st delipidation assay: solubilization of fixed brain tissue suspension, turbidity at 600 nm. Also on record: species or system mice. The note with it: Table 1; 10 wt % chemical, fixed mouse brain suspension, 37° C. overnight; PBS = 1.000. On the procedure:
Specifically, brains taken out of mice were sheared with a utility knife and then were disrupted by ultrasonication. To each of the resultant suspensions, an equal volume of 8% PFA solution was added to perform fixation at 4° C. for 1 hour. The resultant mixture was centrifuged to remove the supernatant, and the fixed brain tissue was washed with PBS for 3 times. PBS was added so as to obtain 2 mL of a fixed brain tissue suspension per brain. The fixed brain tissue suspension was diluted by 3.5 folds. To 20 μL of the resultant suspension, 130 μL of each 10 wt % chemical was added and was shaken at 37° C. overnight. Thus obtained mixed solutions were subjected to absorbance (turbidity) measurement at 600 nm. It is expected that a chemical solution which reduces the turbidity of a fixed brain suspension allows reducing light scattering by solubilizing lipids, which act as a scattering factor, in the brain tissue.

The mark [4] stands for this setting: Table 3, chemical conc. 70 wt %.
Where [5] appears, read: Table 3, chemical conc. 80 wt %.

Counter-ions that a name gives are not always drawn. Like-named read-outs stand apart in the source and are kept apart here.

For `CN(C)CCOC(c1ccccc1)c1ccccc1.Cl` [#0809, Diphen- hydramine hydrochloride], in series [1] (setting [4]), the RI came to 1.4990.

On to `CNCC(O)c1cccc(O)c1.Cl` (racemic) [#1142, DL- Phenylephrine hydrochloride], for which the RI in series [1] is 1.4954.

For `CCCC[N+](CCCC)(CCCC)Cc1ccccc1.[Cl-]` [#0307, Benzyltributyl- ammonium chloride], the RI in series [1] (setting [5]) is 1.4939.

As for `CCN(CC)C(=O)c1cccnc1` [#0609, N,N-Diethyl- nicotinamide], the RI in series [1] (setting [5]) was determined as 1.4928. The OD400 in series [2] (Table 3) is reported as 0.056. Also, where the note is “Table 3”, the pH worked out at 6.4.

In series [1] (Table 3, chemical conc. 85 wt %), `CCCC[n+]1ccccc1.[Br-]` [#0315, 1-Butyl-pyridinium bromide] had an RI of 1.5090. The compound also came in with an OD400 in series [2] (Table 3) of 0.048. The pH (Table 3) was 5.6.

In turn, `CN(C)CCSC(=N)N` [#0830, S-[2-(Dimethyl-amino)ethyl] isothiourea-dihydrochloride] registered an RI in series [1] (setting [4]) of 1.5021. Further, the OD400 in series [2] (Table 3) was 0.047. The pH (Table 3) is recorded as 5.4.

For the compound `CN(C)C(=O)c1ccccc1` [#0788, N,N- Dimethyl- benzamide], at EGFP, the “2nd quenching assay EGFP fluorescence” value is listed as “quench free” and the “retention of fluorescence of a fluorescent protein” value (shortened to “retention”) is recorded as “allowing retention of fluorescence of a fluorescent protein”. Besides, in the series on bovine coagulated blood, the “700 nm calibrated 420 nm Average” value is given as 1.26 and the “integrated value 500-700 nm Average” value turned out to be 1.08. In series [1] (setting [4]), the RI came out at 1.4833. In the series on Serius (relative fluorescence), the “Fluorescence quench Average” value is reported as 0.76. In addition, in series [2], the 400 nm amounted to 0.049. For the same compound, the OD400 in series [2] (Table 3) is listed as 0.049. For the setting “Table 3”, the pH is given as 10.7. The compound further gave a pH ([…]) of 10.7.

For `NCCCn1ccnc1` [#0484, 1-(3-aminopropyl)imidazole], the “retention” value on EGFP was “allows fluorescence of a fluorescent protein to be retained”. For the same compound, in the series on bovine coagulated blood, the “700 nm calibrated 420 nm Average” value turned out to be 4.81 and the “integrated value 500-700 nm Average” value was 2.64. For the same compound, the “Fluorescence quench Average” value with Serius (relative fluorescence) was found to be 0.72. Moreover, the 400 nm in series [2] is 0.05. Where the note is “[…]”, this compound displayed a pH of 12.9.

In series [1] (setting [4]), `Cc1ccc(C(=O)C(C)CN2CCCCC2)cc1.Cl` (centres unmarked) [#1392, Tolperisone hydrochloride] returned an RI of 1.4939. In series [2] (Table 3), this compound yielded an OD400 of 0.056. For the same compound, under “Table 3”, the pH turned out to be 5.2.

With `[O-][n+]1ccccc1` [#1078, Pyridine N- oxide], in series [1] (Table 3, chemical conc. 60 wt %), the RI was found to be 1.4795. In series [2] (Table 3), the OD400 was determined as 0.054. This compound also yielded a pH (Table 3) of 6.1.

`OCCNCc1ccccc1` [#0389, N-Benzyl- ethanolamine]: at EGFP, the “2nd quenching assay EGFP fluorescence” value was “quench free” and the “retention” value was “allowing retention of fluorescence of a fluorescent protein”. In the series with bovine coagulated blood, the “700 nm calibrated 420 nm Average” value came to 2.73 and the “integrated value 500-700 nm Average” value amounted to 2.42. The compound also registered an RI in series [1] (setting [4]) of 1.4814. Further, the “Fluorescence quench Average” value with Serius (relative fluorescence) was found to be 0.57. The compound also yielded a 400 nm in series [2] of 0.063. In series [2] (Table 3), the OD400 came to 0.063. This compound returned a pH (Table 3) of 10.9. For the setting “[…]”, this compound gave a pH of 10.9.

For the compound `CCCCCCCCCCCC[n+]1ccccc1.[Cl-]` [#0635, 1-Dodecylpyridinium chloride], at EGFP, the “retention” value is given as “allows fluorescence of a fluorescent protein to be retained”. Besides, in the series with bovine coagulated blood, the “700 nm calibrated 420 nm Average” value came out at 3.86 and the “integrated value 500-700 nm Average” value is on record as 3.57. The “Fluorescence quench Average” value in the series on Serius (relative fluorescence) amounted to 1.04. Further, the 400 nm in series [2] is listed as 0.053. This compound displayed an OD400 in series [2] (Table 1) of 0.053. The same compound returned a pH (Table 1) of 8.9. Besides, under “[…]”, the pH is 8.9.

Turning to `NCCN1CCNCC1` [#0338, N-(2-Aminoethyl) piperazine], the RI in series [1] (Table 3, chemical conc. 75 wt %) is 1.4794. The compound also came in with an OD400 in series [2] (Table 3) of 0.062. For the same compound, the pH (Table 3) is given as 12.4.

Take `Cc1cccc(C)c1NC1=NCCCS1.Cl` [#1612, Xylazine hydrochloride]: the RI in series [1] (setting [4]) was 1.4956.

For `CCCC[n+]1ccccc1.[Cl-]` [#0415, 1-Butyl-pyridinium chloride], the RI in series [1] (Table 3, chemical conc. 90 wt %) is recorded as 1.4824. The same compound showed an OD400 in series [2] (Table 3) of 0.055. Besides, for the setting “Table 3”, the pH is 5.5.

With `Cc1cc(=O)n(-c2ccccc2)n1C` [#0640, 2,3-Dimethyl-1-phenyl-5-pyrazolone], at EGFP, the “2nd quenching assay EGFP fluorescence” value was “quench free” and the “retention” value was “allowing retention of fluorescence of a fluorescent protein”. For the same compound, in the series with bovine coagulated blood, the “700 nm calibrated 420 nm Average” value is reported as 1.22 and the “integrated value 500-700 nm Average” value stood at 0.93. This compound also gave an RI in series [1] of 1.4966. For the same compound, in the series on Serius, the “Fluorescence quench Average” value is 0.84.

In the case of `CN(C)CCSSCCN(C)C` [#0299, Bis(2-dimethyl-aminoethyl) disulfide dihydrochloride], the RI in series [1] (setting [4]) came out at 1.4937.

As to `C[N+](C)(Cc1ccccc1)c1ccccc1.[Cl-]` [#0450, Benzyl- dimethyl- phenyl- ammonium chloride], on EGFP, the “2nd quenching assay EGFP fluorescence” value is listed as “quench free” and the “retention” value was “allowing retention of fluorescence of a fluorescent protein”. This compound gave an RI in series [1] (setting [4]) of 1.5002. In addition, the OD400 in series [2] (Table 3) stood at 0.052. Besides, the pH (Table 3) is reported as 6.7.

For `Cc1cccc[n+]1[O-]` [#1140, 2-Methyl-pyridine N-oxide], the RI in series [1] (setting [4]) is 1.4919. Moreover, the OD400 in series [2] (Table 3) was found to be 0.049. Where the note is “Table 3”, this compound yielded a pH of 6.2.

As for `NCc1cccnc1` [#1102, 3-Picolylamine], in the series on bovine coagulated blood, the “700 nm calibrated 420 nm Average” value worked out at 2.46 and the “integrated value 500-700 nm Average” value is 1.32. This compound also displayed an RI in series [1] (setting [4]) of 1.4895. In the series on Serius (relative fluorescence), the “Fluorescence quench Average” value was 0.77. Besides, the 400 nm in series [2] was 0.056. In series [2] (Table 3), the OD400 stood at 0.056. For the setting “Table 3”, this compound came in with a pH of 11.6. The pH ([…]) is reported as 11.6.

For the compound Tween ® 40 [#1455], the “1st delipidation assay Relative OD600” value in series [3] was 0.073. In the series with bovine coagulated blood, the “700 nm calibrated 420 nm Average” value is recorded as 1.38 and the “integrated value 500-700 nm Average” value came to 1.21. For the same compound, in the series with Serius (relative fluorescence), the “Fluorescence quench Average” value is 0.64. This compound also displayed a 400 nm in series [2] of 0.083. Further, the OD400 in series [2] (Table 1) came out at 0.083. The same compound registered a pH (Table 1) of 6.4. The pH ([…]) was 6.4.

“Decyldimethyl(3- sulfopropyl)ammonium [#0651]”: the “retention” value at EGFP was “allows fluorescence of a fluorescent protein to be retained”. In the series on bovine coagulated blood, the “700 nm calibrated 420 nm Average” value is listed as 3.73 and the “integrated value 500-700 nm Average” value was determined as 3.28. In the series with Serius (relative fluorescence), the “Fluorescence quench Average” value is given as 0.97. In series [2], this compound had a 400 nm of 0.048. For the same compound, the OD400 in series [2] (Table 1) came to 0.048. In addition, where the note is “Table 1”, the pH amounted to 7.5. Also, the pH ([…]) stood at 7.5.

In the case of `C[C@H](CCC(=O)[O-])[C@H]1CC[C@H]2[C@@H]3CC[C@@H]4C[C@H](O)CC[C@]4(C)[C@H]3C[C@H](O)[C@]12C.[Na+]` [#0562, Sodium deoxycholate], in series [3], the “1st delipidation assay Relative OD600” value stood at 0.170. In the series on bovine coagulated blood, the “700 nm calibrated 420 nm Average” value is recorded as 1.18 and the “integrated value 500-700 nm Average” value is given as 0.98. Also, the “Fluorescence quench Average” value in the series on Serius (relative fluorescence) turned out to be 1.08. Moreover, the 400 nm in series [2] is reported as 0.054. In series [2] (Table 1), this compound registered an OD400 of 0.054. Moreover, the pH (Table 1) came out at 8.3. The compound further had a pH ([…]) of 8.3.

Compound `Cc1cc[n+]([O-])cc1` [#1145, 4- Methylpyridine N-oxide] showed an RI in series [1] (setting [4]) of 1.5073. The compound further returned an OD400 in series [2] (Table 3) of 0.059. Besides, where the note is “Table 3”, the pH is given as 7.3.

Take `CN(C)C(=O)Oc1cccc([N+](C)(C)C)c1` [#0864, Neostigmine bromide]: at EGFP, the “2nd quenching assay EGFP fluorescence” value is given as “quench free” and the “retention” value is recorded as “allowing retention of fluorescence of a fluorescent protein”. The same compound registered an RI in series [1] (setting [4]) of 1.4830.

In the case of `NCCCNCCCN` [#0785, 3,3′-Diamino-dipropylamine], in the series with bovine coagulated blood, the “700 nm calibrated 420 nm Average” value is reported as 2.09 and the “integrated value 500-700 nm Average” value worked out at 1.48. The same compound yielded an RI in series [1] (Table 3, chemical conc. 100 wt %) of 1.4895. Moreover, the “Fluorescence quench Average” value with Serius worked out at 0.62.
